Measurements: ChEMBL document CHEMBL5120861, “Short peptide pharmacophores developed from protein phosphatase-1 disrupting peptides (PDPs)” (Bioorg Med Chem, 2022)
Activity calls are given as the source filed them. The rule behind the calls is not given here. Where a SMILES comes first, the peptide text is derived from it. [ ]: non-standard residue; d: D form. 1Nal = N[C@@H](Cc1cccc2ccccc12)C(=O)O; 2Nal = N[C@@H](Cc1ccc2ccccc2c1)C(=O)O; NMeF = CN[C@@H](Cc1ccccc1)C(=O)O; hArg = N=C(N)NCCCC[C@H](N)C(=O)O; β3hR = N=C(N)NCCC[C@H](N)CC(=O)O; Cha = N[C@@H](CC1CCCCC1)C(=O)O; β3hK = NCCCC[C@H](N)CC(=O)O

Species on record: Homo sapiens
Test: (§1) Disruption of PP1 holoenzyme (unknown origin) interaction with protein inhibitor 2 assessed as increase in PP1 phosphatase activity by measuring increase in fluorescence using DiFMUP as substrate at 500 uM enzyme preincubated with I2 for ten mins followed by compound treatment for 20 mins followed by substrate addition by fluorescence based analysis

Activity	Compound
Active	CC(C)[C@@H](NC(=O)[C@@H](Cc1cnc[nH]1)NC(=O)[C@H](N)Cc1ccccc1)C(=O)N[C@H](CCCNC(=N)N)C(=O)O
Active	CC[C@H](C)[C@H](NC(=O)[C@@H](N)CCCNC(=N)N)C(=O)N[C@H](C(=O)N[C@@H](Cc1ccccc1)C(=O)O)[C@@H](C)O (H-RITF-OH)
Active	CC(C)C[C@H](NC(=O)[C@@H](N)CCCNC(=N)N)C(=O)N[C@H](C(=O)N[C@@H](Cc1ccccc1)C(=O)O)[C@@H](C)O (H-RLTF-OH)

Biological target: not listed separately
Test: as §1, with “substrate” for “substrate at 500 uM”
Design: species or system Homo sapiens

Compound	EC50
CC(C)[C@H](NC(=O)[C@H](CCCNC(=N)N)NC(=O)[C@H](N)CCCCN)C(=O)N[C@@H](Cc1cnc[nH]1)C(=O)N[C@@H](Cc1ccccc1)C(N)=O	2.6 µM
CC[C@H](C)[C@H](NC(=O)[C@@H](NC(=O)[C@H](CCC(=O)O)NC(=O)[C@H](C)NC(=O)[C@H](C)NC(=O)[C@H](CCC(=O)O)NC(=O)[C@H](Cc1ccc(C(=O)c2ccccc2)cc1)NC(=O)[C@H](Cc1ccccc1)NC(=O)[C@@H](NC(=O)[C@@H](NC(=O)[C@H](CCCNC(=N)N)NC(=O)[C@H](C)NC(=O)[C@H](CC(N)=O)NC(=O)[C@H](CCCCN)NC(=O)[C@H](CCCNC(=N)N)NC(=O)[C@H](CCCCN)NC(=O)[C@H](CCCNC(=N)N)NC(=O)[C@H](CCCCN)NC(=O)[C@@H]1CCCN1C(=O)[C@H](CCCNC(=N)N)NC(=O)[C@H](CCCCN)NC(=O)[C@H](CCCNC(=N)N)NC(=O)[C@H](CCCNC(=N)N)NC(C)=O)C(C)C)[C@H](C)O)[C@@H](C)CC)C(N)=O	0.233 µM
CC(=O)N[C@@H](CCCNC(=N)N)C(=O)N[C@H](C(=O)N[C@H](C(=O)N[C@@H](Cc1ccccc1)C(N)=O)[C@@H](C)O)C(C)C (Ac-RVTF-NH2)	85.7 µM
CC(=O)N[C@@H](CCCNC(=N)N)C(=O)N[C@H](C(=O)N[C@H](C(=O)N[C@@H](Cc1ccccc1)C(=O)O)[C@@H](C)O)C(C)C (Ac-RVTF-OH)	> 500 µM
CC(C)[C@H](NC(=O)[C@@H](NC(=O)[C@@H](N)Cc1ccccc1)[C@@H](C)O)C(=O)N[C@@H](CCCNC(=N)N)C(=O)O (H-FTVR-OH)	> 500 µM
CC(C)[C@H](NC(=O)[C@H](CCCNC(=N)N)NC(=O)[C@@H](N)CCCCN)C(=O)N[C@@H](Cc1cnc[nH]1)C(=O)N[C@@H](Cc1cccc2ccccc12)C(N)=O (H-KRVH[1Nal]-NH2)	2.5 µM
CC(C)[C@H](NC(=O)[C@H](CCCNC(=N)N)NC(=O)[C@@H](N)CCCCN)C(=O)N[C@@H](Cc1c[nH]cn1)C(=O)N[C@@H](Cc1ccc2ccccc2c1)C(N)=O (H-KRVH[2Nal]-NH2)	1.5 µM
CC(C)[C@H](NC(=O)[C@H](CCCNC(=N)N)NC(=O)[C@@H](N)CCCCN)C(=O)N[C@@H](Cc1cnc[nH]1)C(=O)N[C@@H](CC1CCCCC1)C(N)=O (H-KRVH[Cha]-NH2)	52.5 µM
CC(C)[C@H](NC(=O)[C@H](CCCNC(=N)N)NC(=O)[C@@H](N)CCCCN)C(=O)N[C@@H](Cc1c[nH]cn1)C(=O)N(C)[C@@H](Cc1ccccc1)C(N)=O (H-KRVH[NMeF]-NH2)	23.5 µM
CC(C)[C@H](NC(=O)[C@@H](N)CCCCN)C(=O)N[C@H](C(=O)N[C@@H](Cc1ccccc1)C(=O)O)[C@@H](C)O (H-KVTF-OH)	> 500 µM
CC(C)[C@H](NC(=O)C[C@H](CCCNC(=N)N)NC(=O)[C@@H](N)CCCCN)C(=O)N[C@@H](Cc1c[nH]cn1)C(=O)N[C@@H](Cc1ccccc1)C(N)=O (H-K[β3hR]VHF-NH2)	204 µM
CC(C)[C@H](NC(=O)[C@@H](N)CCCNC(=N)N)C(=O)N[C@@H](CC(=O)O)C(=O)N[C@@H](Cc1ccccc1)C(=O)O (H-RVDF-OH)	> 500 µM
CC(C)[C@H](NC(=O)[C@@H](N)CCCNC(=N)N)C(=O)N[C@@H](Cc1ccccc1)C(=O)N[C@@H](Cc1ccccc1)C(=O)O (H-RVFF-OH)	> 500 µM
CC(C)[C@H](NC(=O)[C@@H](N)CCCNC(=N)N)C(=O)N[C@@H](Cc1cnc[nH]1)C(=O)N[C@@H](Cc1ccccc1)C(=O)O (H-RVHF-OH)	69.7 µM
CC(C)[C@H](NC(=O)[C@@H](N)CCCNC(=N)N)C(=O)N[C@@H](CCCCN)C(=O)N[C@@H](Cc1ccccc1)C(=O)O (H-RVKF-OH)	249 µM
CC(C)[C@H](NC(=O)[C@@H](N)CCCNC(=N)N)C(=O)N[C@@H](CC(N)=O)C(=O)N[C@@H](Cc1ccccc1)C(=O)O (H-RVNF-OH)	220 µM
CC(C)[C@H](NC(=O)[C@@H](N)CCCNC(=N)N)C(=O)N[C@@H](CCC(N)=O)C(=O)N[C@@H](Cc1ccccc1)C(=O)O (H-RVQF-OH)	224 µM
CC(C)[C@H](NC(=O)[C@@H](N)CCCNC(=N)N)C(=O)N[C@@H](CO)C(=O)N[C@@H](Cc1ccccc1)C(=O)O (H-RVSF-OH)	> 500 µM
CC(C)[C@H](NC(=O)[C@@H](N)CCCNC(=N)N)C(=O)N[C@H](C(=O)N[C@@H](Cc1ccccc1)C(N)=O)[C@@H](C)O (H-RVTF-NH2)	101 µM

Compound	EC50
CC(C)[C@H](NC(=O)[C@@H](N)CCCNC(=N)N)C(=O)N[C@H](C(=O)N[C@@H](Cc1ccccc1)C(=O)O)[C@@H](C)O (H-RVTF-OH)	234 µM
CC(C)[C@H](NC(=O)[C@@H](N)CCCNC(=N)N)C(=O)N[C@H](C(=O)N[C@@H](Cc1c[nH]c2ccccc12)C(=O)O)[C@@H](C)O (H-RVTW-OH)	256 µM
CC(C)[C@H](NC(=O)[C@@H](N)CCCNC(=N)N)C(=O)N[C@H](C(=O)N[C@@H](Cc1ccc(O)cc1)C(=O)O)[C@@H](C)O (H-RVTY-OH)	> 500 µM
CC(C)[C@H](NC(=O)[C@@H](N)CCCNC(=N)N)C(=O)N[C@H](C(=O)N[C@H](Cc1ccccc1)C(=O)O)[C@@H](C)O (H-RVT[dF]-OH)	> 500 µM
CC(C)[C@H](NC(=O)[C@@H](N)CCCNC(=N)N)C(=O)N[C@@H](Cc1c[nH]c2ccccc12)C(=O)N[C@@H](Cc1ccccc1)C(=O)O (H-RVWF-OH)	104 µM
CC(C)[C@H](NC(=O)[C@@H](N)CCCNC(=N)N)C(=O)N[C@@H](C(=O)N[C@@H](Cc1ccccc1)C(=O)O)[C@H](C)O (H-RV[dT]F-OH)	> 500 µM
CC(C)[C@@H](NC(=O)[C@@H](N)CCCNC(=N)N)C(=O)N[C@H](C(=O)N[C@@H](Cc1ccccc1)C(=O)O)[C@@H](C)O (H-R[dV]TF-OH)	> 500 µM
CC(C)[C@@H](NC(=O)[C@H](NC(=O)[C@H](N)Cc1ccccc1)[C@H](C)O)C(=O)N[C@H](CCCNC(=N)N)C(=O)O (H-[dF][dT][dV][dR]-OH)	> 500 µM
CC(C)[C@H](NC(=O)[C@H](N)CCCNC(=N)N)C(=O)N[C@H](C(=O)N[C@@H](Cc1ccccc1)C(=O)O)[C@@H](C)O (H-[dR]VTF-OH)	> 500 µM
CC(C)[C@H](NC(=O)[C@H](N)CCCNC(=N)N)C(=O)N[C@H](C(=O)N[C@H](Cc1ccccc1)C(=O)O)[C@@H](C)O (H-[dR]VT[dF]-OH)	> 500 µM
CC(C)[C@@H](NC(=O)[C@H](N)CCCNC(=N)N)C(=O)N[C@@H](C(=O)N[C@@H](Cc1ccccc1)C(=O)O)[C@H](C)O (H-[dR][dV][dT]F-OH)	> 500 µM
CC(C)[C@H](NC(=O)[C@H](CCCNC(=N)N)NC(=O)[C@@H](N)CCCCNC(=N)N)C(=O)N[C@@H](Cc1cnc[nH]1)C(=O)N[C@@H](Cc1ccccc1)C(N)=O (H-[hArg]RVHF-NH2)	6.6 µM
CC(C)[C@H](NC(=O)[C@H](CCCNC(=N)N)NC(=O)C[C@@H](N)CCCCN)C(=O)N[C@@H](Cc1c[nH]cn1)C(=O)N[C@@H](Cc1ccccc1)C(N)=O (H-[β3hK]RVHF-NH2)	9.8 µM
Ac-KRVHF-NH2	1.7 µM
Ac-KRVHF-OH	3.2 µM
H-KHVHF-NH2	24.6 µM
H-KRVHF-OH	1.5 µM
H-RRVHF-OH	2.7 µM
